Results taken from US20110245284A1, “Alkoxy- and Alkylthio-Substituted Anilinopyrimidines” (Bayer CropScience AG, priority 2008, published 2011).
pIC50: −log10 of the molar value. Where two headings read alike, the source gives them in different places.

Legend:
Pyricularia oryzae = test: whole plant or invertebrate; assay type: in vivo; conditions: 120 h, read-out: efficacy
[1] = logP by LC-MS on reversed-phase columns (C 18), method [c], neutral range pH 7.8; assay type: physicochemical; conditions: pH 7.8
Experimental: (§1) The logP values were determined in accordance with EEC Directive 79/831 Annex V.A8 by HPLC (High Performance Liquid Chromatography) on reversed-phase columns (C 18), using the methods below:
[c] The LC-MS determination in the neutral range is carried out at pH 7.8 using the mobile phases 0.001 molar aqueous ammonium bicarbonate solution and acetonitrile, linear gradient from 10% acetonitrile to 95% acetonitrile.

Fusarium graminearum = test: microbe, parasite or virus in culture; assay type: cell-based; conditions: 168 h, read-out: DON/AcDON-inhibitory activity
Pyrenophora teres = Pyrenophora teres test (barley) / protective; assay type: in vivo; conditions: 192 h, active compound concentration 500 ppm, evaluation 8 days after inoculation, read-out: efficacy
Experimental: After the spray coating has dried on, the plants are sprayed with a spore suspension of Pyrenophora teres. The plants remain in an incubation cabinet for 48 hours at 20° C. and 100% relative atmospheric humidity.

Rhizoctonia solani = test: Rhizoctonia test (rice) / protective; assay type: in vivo; conditions: 96 h, active compound concentration 250 ppm, evaluation 4 days after inoculation, read-out: efficacy
[2] = logP by LC-MS on reversed-phase columns (C 18), method [b], acidic range pH 2.7; assay type: physicochemical; conditions: pH 2.7, log p
Experimental: as §1
[b] The LC-MS determination in the acidic range is carried out at pH 2.7 using the mobile phases 0.1% aqueous formic acid and acetonitrile (contains 0.1% formic acid), linear gradient from 10% acetonitrile to 95% acetonitrile.

Leptosphaeria nodorum = Leptosphaeria nodorum test (wheat) / protective; assay type: in vivo; conditions: Parastagonospora nodorum, active compound concentration 500 ppm, evaluation 7-9 days after inoculation, read-out: efficacy
Experimental: Thereafter, the plants are placed in a greenhouse at 90% relative atmospheric humidity and a temperature of 22° C.

Sphaerotheca fuliginea = test: Sphaerotheca test (cucumber) / protective; assay type: in vivo; conditions: Podosphaera fuliginea, 168 h, active compound concentration 500 ppm, evaluation 7 days after inoculation, read-out: efficacy
Experimental: The plants are subsequently placed in a greenhouse at 70% relative atmospheric humidity and a temperature of 23° C.

Cochliobolus miyabeanus = test: Cochliobolus test (rice) / protective; conditions: Bipolaris oryzae, in Oryza sativa, 96 h, read-out: efficacy
Experimental: Cochliobolus Test (Rice)/Protective • Solvent: 28.5 parts by weight of acetone • Emulsifier: 1.5 parts by weight of alkylaryl polyglycol ether
1 day after the treatment, the plants are inoculated with an aqueous spore suspension of Cochliobolus miyabeanus. The plants are then placed in a greenhouse at 100% relative atmospheric humidity and 25° C.
Evaluation is carried out 4 days after the inoculation.

Alternaria solani = test: Alternaria test (tomato) / protective; assay type: in vivo; conditions: 72 h, active compound concentration 100 ppm, evaluation 3 days after inoculation, read-out: efficacy
Experimental: The plants are then placed in an incubation cabinet at about 20° C. and 100% relative atmospheric humidity.

Fusarium proliferatum = test: Production of fumonisin FB1 by Fusarium proliferatum (microtitre plates; FB1 by HPLC-MS/MS, growth by OD620); assay type: cell-based; conditions: Fusarium proliferatum, 144 h; for pIC50: read-out: pI50 Fum; for IC50: growth, OD620 at the beginning and after 6 days, read-out: pI50 growth (converted)
Venturia inaequalis = test: Venturia test (apple) / protective; assay type: in vivo; conditions: 240 h, active compound concentration 100 ppm, evaluation 10 days after inoculation, read-out: efficacy
Experimental: After the spray coating has dried on, the plants are inoculated with an aqueous conidia suspension of the apple scab pathogen Venturia inaequalis and then remain for 1 day in an incubation cabinet at about 20° C. and 100% relative atmospheric humidity.

[3] = logP by HPLC on reversed-phase columns (C 18), method [a], acidic range pH 2.3; assay type: physicochemical; conditions: pH 2.3, logP (pH2.3)
Experimental: as §1
[a] The determination is carried out in the acidic range at pH 2.3 using the mobile phases 0.1% aqueous phosphoric acid and acetonitrile, linear gradient from 10% acetonitrile to 95% acetonitrile.

[4] = as above; assay type: physicochemical; conditions: pH 2.94, logP (pH2.94)

| SMILES | pest or weed control at 250 ppm (Pyricularia oryzae) | chromatographic logP [1] | inhibition at 50 µM (Fusarium graminearum) | pest or weed control at 500 ppm (Pyrenophora teres) | pest or weed control at 250 ppm (Rhizoctonia solani) | chromatographic logP [2] | pest or weed control at 500 ppm (Leptosphaeria nodorum) | pest or weed control at 500 ppm (Sphaerotheca fuliginea) | pest or weed control at 250 ppm (Cochliobolus miyabeanus) | pest or weed control at 100 ppm (Alternaria solani) | pIC50 (Fusarium proliferatum) | IC50 (Fusarium proliferatum) | pest or weed control at 100 ppm (Venturia inaequalis) | chromatographic logP [3] | chromatographic logP [4] |
| --- | --- | --- | --- | --- | --- | --- | --- | --- | --- | --- | --- | --- | --- | --- | --- |
| COCC(O)c1cccc(Nc2ncc(C(F)(F)F)c(NC3CC3)n2)c1 (stereo not shown) [Example 195] | ≥ 80% | 2.64 | > 80% | ≥ 70% | ≥ 80% | 1.97 | ≥ 70% | ≥ 70% | – | – | – | – | – | – | – |
| CC[S+]([O-])c1cccc(Nc2ncc(Cl)c(NC3CCC3)n2)c1 (stereo not shown) [Example 28, 5-Chloro-N^4-cyclobutyl-N^2-[3-(ethylsulphinyl)phenyl]pyrimidine-2,4-diamine] | ≥ 80% | – | – | ≥ 70% | ≥ 80% | 1.76 | ≥ 70% | ≥ 70% | ≥ 80% | ≥ 70% | 5.40 | 20 µM | ≥ 70% | 1.76 | – |
| COCCc1cccc(Nc2ncc(Cl)c(NC3CC3)n2)c1 [Example 60] | ≥ 80% | – | – | ≥ 70% | ≥ 80% | 2.41 | ≥ 70% | ≥ 70% | ≥ 80% | ≥ 70% | 6.20 | 1.58 µM | ≥ 70% | – | – |
| CC(O)c1cccc(Nc2ncc(Cl)c(NC3CC3)n2)c1 (stereo not shown) [Ic-IV-1, 1-(3-{[5-Chloro-4-(cyclopropylamino)pyrimidin-2-yl]amino}phenyl)ethanol] | – | – | – | – | – | – | – | – | – | – | – | – | – | – | 1.25 |
| CCC(SC)c1cccc(Nc2ncc(Cl)c(NC3CC3)n2)c1 (stereo not shown) [Example 61, 5-Chloro-N^4-cyclopropyl-N^2-{3-[1-(methylsulphanyl)propyl]phenyl}pyrimidine-2,4-diamine] | ≥ 80% | – | > 80% | – | ≥ 80% | 2.94 | ≥ 70% | ≥ 70% | – | ≥ 70% | – | – | ≥ 70% | 2.59 | – |
| CCC(SC)c1cccc(Nc2ncc(C(F)(F)F)c(NC3CC3)n2)c1 (stereo not shown) [Example 62] | ≥ 80% | – | – | – | ≥ 80% | 4.23 | ≥ 70% | ≥ 70% | ≥ 80% | ≥ 70% | 4.80 | > 50.1 µM | ≥ 70% | – | – |
| CCS(=O)(=O)c1cccc(Nc2ncc(Cl)c(NC3CCC3)n2)c1 [Example 27, 5-chloro-N^4-cyclobutyl-N^2-[3-(ethylsulphonyl)phenyl]pyrimidine-2,4-diamine] | ≥ 80% | – | – | – | – | 2.21 | ≥ 70% | ≥ 70% | ≥ 80% | ≥ 70% | 5.70 | 20 µM | ≥ 70% | 2.21 | – |
| COC(C)c1cccc(Nc2ncc(Br)c(NC3CCC3)n2)c1 (stereo not shown) [Example 20] | ≥ 80% | – | – | ≥ 70% | ≥ 80% | 2.46 | ≥ 70% | – | ≥ 80% | ≥ 70% | 6.10 | 3.98 µM | ≥ 70% | – | – |
| COC(C)(C)c1cccc(Nc2ncc(Cl)c(NC3CC3)n2)c1 [Example 59] | ≥ 80% | 3.5 | – | ≥ 70% | ≥ 80% | 2.16 | ≥ 70% | ≥ 70% | ≥ 80% | ≥ 70% | 6.30 | 3.16 µM | ≥ 70% | – | – |
| COCc1cccc(Nc2ncc(Cl)c(N(C)C3CC3)n2)c1 [Example 58] | – | 3.76 | > 80% | ≥ 70% | – | 2.7 | ≥ 70% | ≥ 70% | – | – | – | – | ≥ 70% | – | – |
| COCc1cccc(Nc2ncc(Cl)c(NCCF)n2)c1 [Example 138] | ≥ 80% | 2.57 | > 80% | ≥ 70% | – | 1.48 | ≥ 70% | ≥ 70% | – | ≥ 70% | – | – | ≥ 70% | – | – |
| CCC[S+]([O-])c1cccc(Nc2ncc(C(F)(F)F)c(Cl)n2)c1 (stereo not shown) [Xb-1, 4-Chloro-N-[3-(propylsulphinyl)phenyl]-5-(trifluoromethyl)pyrimidin-2-amine] | – | – | – | – | – | – | – | – | – | – | – | – | – | – | 1.76 |
